The results in this text go back to ChEMBL document CHEMBL1201862, “PubChem BioAssay data set” (2004).

Some targets named below: Cytochrome P450 2D6 (Homo sapiens, UniProt P10635); Cytochrome P450 3A4 (Homo sapiens, UniProt P08684); Cytochrome P450 2C9 (Homo sapiens, UniProt P11712).
For another assay, the target named is Cytochrome P450 2C19 (Homo sapiens, UniProt P33261). The experiment in a line: Cytochrome panel assay with activity outcomes. Panel member name: p450-cyp2c19 Compounds with AC50 equal or less than 10 uM are considered active. The format is functional. Particulars: read-out: AC50.
A further assay concerns the target T1, Cytochrome P450 1A2 (Homo sapiens, UniProt P05177).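 Also: PubChem cytochrome P450 panel assay, CYP1A2 panel member.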
T1 sequence (P05177 whole entry): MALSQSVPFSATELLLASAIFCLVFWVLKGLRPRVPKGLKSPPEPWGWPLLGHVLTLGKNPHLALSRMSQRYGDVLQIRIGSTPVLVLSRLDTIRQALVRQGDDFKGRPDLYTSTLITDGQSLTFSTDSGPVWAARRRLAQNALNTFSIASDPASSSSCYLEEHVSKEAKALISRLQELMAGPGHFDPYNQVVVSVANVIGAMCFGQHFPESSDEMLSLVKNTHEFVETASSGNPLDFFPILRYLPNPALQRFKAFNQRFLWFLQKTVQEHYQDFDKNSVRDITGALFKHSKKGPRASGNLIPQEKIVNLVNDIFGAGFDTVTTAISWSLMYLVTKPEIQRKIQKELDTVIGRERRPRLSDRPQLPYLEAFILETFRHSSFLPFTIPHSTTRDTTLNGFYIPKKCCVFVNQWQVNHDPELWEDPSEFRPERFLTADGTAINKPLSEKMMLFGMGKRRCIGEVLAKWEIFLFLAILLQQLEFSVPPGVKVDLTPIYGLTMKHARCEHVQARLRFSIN

Assay [1] in a line: growth suppression of PTEN-null colon cells, dose response, cell-based, HCT116 PTEN knockout (AID 1047).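 Also: HCT116 colon tumor cells with PTEN knocked out; cells exposed to compound for 60 hours before readout; potency for loss of cell viability measured by luminescence.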 It is filed as functional.
The nature of assay [2]: growth suppression of beta-catenin-knockout colon cells, dose response, cell-based, HCT116, human colon tumor (AID 1045).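 Also: HCT116 colon tumor cells with beta catenin knocked out; cells exposed to compound for 60 hours.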 It is filed as functional.
Assay [3] deals with T2, Corticotropin-releasing factor receptor 2/Corticotropin-releasing factor-binding protein (Homo sapiens, UniProt P24387+Q13324).
T2 sequence (Q13324 whole entry): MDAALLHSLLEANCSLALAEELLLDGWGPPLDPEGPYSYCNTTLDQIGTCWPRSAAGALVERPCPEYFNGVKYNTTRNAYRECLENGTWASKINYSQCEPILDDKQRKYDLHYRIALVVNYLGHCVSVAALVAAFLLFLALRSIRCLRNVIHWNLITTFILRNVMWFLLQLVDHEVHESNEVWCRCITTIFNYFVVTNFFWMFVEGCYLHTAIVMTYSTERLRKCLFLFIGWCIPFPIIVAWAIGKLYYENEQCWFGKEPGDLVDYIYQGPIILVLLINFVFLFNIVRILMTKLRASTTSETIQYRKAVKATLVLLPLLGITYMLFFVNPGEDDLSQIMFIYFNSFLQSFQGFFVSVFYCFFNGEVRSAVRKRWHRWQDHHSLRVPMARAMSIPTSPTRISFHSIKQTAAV
T2 sequence (P24387 whole entry): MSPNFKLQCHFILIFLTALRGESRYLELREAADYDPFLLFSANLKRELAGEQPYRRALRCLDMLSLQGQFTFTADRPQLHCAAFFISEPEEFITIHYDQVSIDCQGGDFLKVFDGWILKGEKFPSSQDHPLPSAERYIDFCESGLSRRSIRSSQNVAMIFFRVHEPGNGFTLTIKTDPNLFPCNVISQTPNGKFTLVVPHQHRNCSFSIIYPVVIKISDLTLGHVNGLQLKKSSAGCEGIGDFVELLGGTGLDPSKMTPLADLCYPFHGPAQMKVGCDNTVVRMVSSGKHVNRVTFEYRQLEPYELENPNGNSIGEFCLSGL
The experiment in a line: Dose Response confirmation of uHTS hits for small molecule antagonists of the CRF-binding protein and CRF-R2 receptor complex. It is filed as functional. Particulars: read-out: IC50_Mean.

In assay [4] the target is T2, Corticotropin-releasing factor receptor 2/Corticotropin-releasing factor-binding protein. Description: activators of CRF receptor 2 with binding protein – uHTS hits, confirmation (AID 602473). Conditions: read-out: EC50_Mean. The format is functional.
Assay [5] concerns the target T3, Rac GTPase-activating protein 1 (Homo sapiens, UniProt Q9H0H5).
T3 sequence (Q9H0H5 whole entry): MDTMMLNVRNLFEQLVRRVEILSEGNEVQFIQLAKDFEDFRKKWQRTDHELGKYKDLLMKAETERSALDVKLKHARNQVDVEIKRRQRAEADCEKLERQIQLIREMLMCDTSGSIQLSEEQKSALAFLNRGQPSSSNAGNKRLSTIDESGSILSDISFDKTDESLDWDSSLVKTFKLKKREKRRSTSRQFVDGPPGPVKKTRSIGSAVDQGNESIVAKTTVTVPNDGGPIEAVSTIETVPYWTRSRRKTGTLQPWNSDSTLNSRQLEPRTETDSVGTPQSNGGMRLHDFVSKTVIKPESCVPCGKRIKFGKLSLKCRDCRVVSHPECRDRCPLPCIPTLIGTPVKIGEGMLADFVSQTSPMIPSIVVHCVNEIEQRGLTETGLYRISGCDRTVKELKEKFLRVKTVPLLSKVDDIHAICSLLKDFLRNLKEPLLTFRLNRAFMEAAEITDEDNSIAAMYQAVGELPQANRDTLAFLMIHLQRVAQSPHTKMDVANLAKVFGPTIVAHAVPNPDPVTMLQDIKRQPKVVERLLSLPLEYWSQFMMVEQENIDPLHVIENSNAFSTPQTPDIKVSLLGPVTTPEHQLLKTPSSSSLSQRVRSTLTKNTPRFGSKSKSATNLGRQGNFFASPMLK
The experiment in a line: MgcRacGAP GTPase-activating activity inhibitors, confirmation, biochemical, ADP Hunter fluorescence, primary and confirmatory (AID 624330). The format is functional.

The nature of the next assay: cells. It is filed as functional.
A short description of assay [6]: inhibitors of intracellular T. cruzi replication, confirmation, NIH3T3 host cells, beta-gal luminescence (AID 2044).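 Also: intracellular parasites grown in NIH/3T3 mouse fibroblasts as host cells; luminescent beta-galactosidase reporter signal from transgenic T. cruzi replicating inside host cells; inhibitors lower the luminescence signal.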 It is filed as functional, cell-based.
Assay [7] in a line: cytotoxicity toward NIH3T3 fibroblasts, dose response, counter-screen, cell-based, ATP luminescence, mouse fibroblasts (AID 2010).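 Also: cells exposed to compound for about 90 hours before reading.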 It is filed as functional. On the technique in general: A counterscreen serves to expose hits that act by an unwanted route or on another target.
Assay [8] is described as follows: P. falciparum Dd2 growth inhibitors, dose response, SYBR Green, cherry-picked samples (AID 1159567). It is filed as functional, cell-based.

Activity calls are given as the source filed them.

Sequence of Cytochrome P450 3A4 (P08684 whole entry): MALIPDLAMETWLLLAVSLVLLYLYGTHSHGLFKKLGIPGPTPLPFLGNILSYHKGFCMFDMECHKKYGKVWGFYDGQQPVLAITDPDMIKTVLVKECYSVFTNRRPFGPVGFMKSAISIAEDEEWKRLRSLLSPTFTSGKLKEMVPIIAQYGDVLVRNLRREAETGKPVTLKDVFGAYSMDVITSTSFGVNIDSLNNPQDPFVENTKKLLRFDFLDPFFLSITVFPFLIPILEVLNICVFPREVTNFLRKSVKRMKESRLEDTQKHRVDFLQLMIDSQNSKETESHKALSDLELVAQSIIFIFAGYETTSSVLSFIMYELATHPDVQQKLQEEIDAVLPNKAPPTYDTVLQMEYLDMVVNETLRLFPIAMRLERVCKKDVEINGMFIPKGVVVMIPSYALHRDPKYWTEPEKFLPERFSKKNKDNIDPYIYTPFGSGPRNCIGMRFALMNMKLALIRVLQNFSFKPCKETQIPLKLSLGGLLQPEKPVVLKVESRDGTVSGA
Sequence of Cytochrome P450 2C9 (P11712 whole entry): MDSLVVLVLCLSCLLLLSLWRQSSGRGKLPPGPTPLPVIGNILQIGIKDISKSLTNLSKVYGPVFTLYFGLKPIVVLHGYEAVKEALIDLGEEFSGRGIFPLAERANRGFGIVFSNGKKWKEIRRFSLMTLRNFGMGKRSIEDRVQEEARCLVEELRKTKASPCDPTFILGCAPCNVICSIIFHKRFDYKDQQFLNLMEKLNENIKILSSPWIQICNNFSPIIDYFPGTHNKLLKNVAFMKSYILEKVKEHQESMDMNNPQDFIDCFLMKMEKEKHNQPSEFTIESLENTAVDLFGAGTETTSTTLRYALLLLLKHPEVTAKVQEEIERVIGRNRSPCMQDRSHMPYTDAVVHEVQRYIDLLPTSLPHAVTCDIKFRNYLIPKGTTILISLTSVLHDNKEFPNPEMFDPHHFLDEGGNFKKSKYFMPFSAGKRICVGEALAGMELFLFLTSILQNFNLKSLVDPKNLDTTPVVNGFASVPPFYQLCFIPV
Sequence of Cytochrome P450 2C19 (P33261 whole entry): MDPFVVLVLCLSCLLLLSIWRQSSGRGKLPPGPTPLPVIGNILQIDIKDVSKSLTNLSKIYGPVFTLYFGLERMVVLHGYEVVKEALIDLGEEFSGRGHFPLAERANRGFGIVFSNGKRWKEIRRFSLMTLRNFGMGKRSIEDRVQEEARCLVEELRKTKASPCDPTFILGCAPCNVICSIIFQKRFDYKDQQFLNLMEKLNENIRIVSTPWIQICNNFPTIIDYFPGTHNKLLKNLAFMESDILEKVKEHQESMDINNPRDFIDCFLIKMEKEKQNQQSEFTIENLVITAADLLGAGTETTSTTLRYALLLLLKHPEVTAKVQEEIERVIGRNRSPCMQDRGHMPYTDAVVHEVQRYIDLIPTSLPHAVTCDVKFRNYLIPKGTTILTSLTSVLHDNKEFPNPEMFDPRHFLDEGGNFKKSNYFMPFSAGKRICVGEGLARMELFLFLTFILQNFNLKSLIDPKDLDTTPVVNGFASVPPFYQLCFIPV
Sequence of Cytochrome P450 2D6 (P10635 whole entry): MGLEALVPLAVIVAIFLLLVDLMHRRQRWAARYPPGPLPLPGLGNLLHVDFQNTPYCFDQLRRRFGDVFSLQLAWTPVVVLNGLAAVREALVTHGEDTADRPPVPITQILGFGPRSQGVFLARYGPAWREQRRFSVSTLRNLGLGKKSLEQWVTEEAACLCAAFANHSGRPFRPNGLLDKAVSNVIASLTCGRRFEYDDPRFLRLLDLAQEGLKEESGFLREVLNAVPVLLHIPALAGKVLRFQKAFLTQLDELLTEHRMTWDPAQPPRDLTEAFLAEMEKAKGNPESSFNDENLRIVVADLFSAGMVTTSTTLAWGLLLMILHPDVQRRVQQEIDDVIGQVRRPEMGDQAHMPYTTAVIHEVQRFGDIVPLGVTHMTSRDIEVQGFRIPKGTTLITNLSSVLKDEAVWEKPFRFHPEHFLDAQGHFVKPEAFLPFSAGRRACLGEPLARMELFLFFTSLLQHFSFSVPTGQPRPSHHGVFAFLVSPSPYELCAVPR

For orientation: AC50 means the midpoint of the concentration-response curve, whichever way the signal moves. As for `O=C(Cn1cc(C(F)(F)F)ccc1=O)N1CCN(S(=O)(=O)c2ccccc2)CC1`, the values for the concentration at half-maximal activity (AC50) at Cytochrome P450 2C19, on Cytochrome P450 2D6 and on Cytochrome P450 1A2 were 31.6 µM (inconclusive), 11.2 µM (inconclusive) and 39.8 µM (inconclusive), respectively.
Take `O=C1/C(=C\c2cccnc2)CCc2ccccc21`: the EC50 in assay [1] is 15.4 µM (active); in assay [2], 14.5 µM (active).
Regarding `CCOc1c2ccc(C(=O)N[C@H](C)C3CCCCC3)cc2nn1CC`, the AC50 at Cytochrome P450 2C19 was 28.2 µM (inconclusive); on Cytochrome P450 2D6 it was 10 µM (inconclusive); at Cytochrome P450 1A2 it was 12.6 µM (inconclusive); at Cytochrome P450 3A4 it was 25.1 µM (inconclusive); on Cytochrome P450 2C9 it was 14.1 µM (inconclusive).
Regarding `C=CCn1c(SCC(=O)c2c(N)n(C)c(=O)n(C)c2=O)nc2sc(CC)cc2c1=O`, the EC50 was 26.2 µM (active) in assay [1] and 23.3 µM (active) in [2].
Regarding `COc1ccc(O[C@H]2C=C[C@@H](c3ccccc3)O[C@H]2CO/N=C2/[C@H]3O[C@@H]3[C@@H](O)[C@H]3[C@H]2CCn2c(=O)n(-c4ccccc4)c(=O)n23)cc1`, the AC50 at Cytochrome P450 2D6 was 3.98 µM (inconclusive); on Cytochrome P450 2C9 it was 2 µM (inconclusive).
As for `COc1ccc2oc(C(=O)c3ccccc3)c(NC(=O)CN3CCN(C)CC3)c2c1`, the EC50 was 15.9 µM (active) in assay [1] and 14.1 µM (active) in assay [2].
In the case of `COc1cccc(Oc2ccc(OC)cc2C(=O)O)c1`, in assay [3], the IC50 is > 47.1 µM (inactive). Besides, the EC50 in [4] was > 53 µM (inactive).
As to `CSCCO/C(O)=C1/Sc2cc(C)ccc2N=C1C`, in assay [5], the IC50 was 52.9 µM (active).
`ClCCNc1nc2cc(Cl)ccc2[nH]1`: the AC50 at Cytochrome P450 2C19 is 15.8 µM (inconclusive); at Cytochrome P450 2D6 it was 6.31 µM (inconclusive); at Cytochrome P450 2C9 it was 4.47 µM (inconclusive).
On to `O=C(NCCc1csc(-c2ccccc2)n1)c1c(F)cccc1Cl`, for which the IC50 in assay [3] is > 47.1 µM (inactive). The EC50 in [4] is > 53 µM (inactive).
`O=C(Nc1ccc(Cl)c(Cl)c1)N1CCC(N2CCCCC2)CC1`: the AC50 was 39.8 µM (inconclusive) at Cytochrome P450 2C19, 10 µM (inconclusive) on Cytochrome P450 2D6 and 22.4 µM (inconclusive) on Cytochrome P450 3A4.
Turning to `COc1ccc(N2C(=O)/C(=C/N(C)C)NC2=S)cc1`, the IC50 in assay [5] is 75.4 µM (active).
On the same count and under the same terms, with `CCOc1ccccc1Oc1c[nH]nc1-c1ccc(O)cc1O` the figure was 35.5 µM (active).
For `Nc1nc(O)cc(Nc2ccccc2Cl)n1`, the IC50 in assay [3] is > 47.1 µM (inactive). Moreover, the EC50 in [4] is > 53 µM (inactive).
Turning to `O=C(NCC1CCCO1)C1c2ccccc2C(=O)N1Cc1ccc2c(c1)OCO2` (stereo not drawn), the AC50 at Cytochrome P450 2D6 was 15.8 µM (inconclusive); on Cytochrome P450 1A2, 15.8 µM (inconclusive); at Cytochrome P450 2C9, 11.2 µM (inconclusive).
With `O=C(OCn1nnc2ccccc2c1=O)C1CCCCC1`, the IC50 in “cells” is 6.75 µM (active).
Regarding `CCSc1nnc([C@@H](N)Cc2c[nH]c3ccccc23)o1`, the values for the AC50 on Cytochrome P450 2D6 and on Cytochrome P450 1A2 were 12.6 µM (inconclusive) and 17.8 µM (inconclusive), respectively.
As for `Cc1ccc(SCCN2CCN(Cc3ccccc3)CC2)cc1`, the EC50 in assay [6] is 0.549 µM (active); in assay [7], > 60 µM (not active). In addition, the IC50 in assay [5] was 84.8 µM (active).
`O=C(Nc1ccccn1)c1ccc(C(=O)c2ccccc2)cc1`: the IC50 in “cells” is 32.6 µM (active).
`COc1ccc(N2CCN(S(=O)(=O)c3c(C)nc4scc(C)n4c3=O)CC2)cc1`: in assay [5], the IC50 was 209 µM (active).
In the case of `COc1ccc(CCNCc2cccc(C(F)(F)F)c2)cc1OC`, the IC50 in assay [5] is 186 µM (active).
Turning to `COCC(C)n1c(C)cc(C(=O)CSc2nnc(Nc3ccccc3F)s2)c1C` (stereo not drawn), the AC50 at Cytochrome P450 2D6 was 25.1 µM (inconclusive); at Cytochrome P450 1A2, 28.2 µM (inconclusive).
Turning to `CCOC(=O)c1cc(NC(=O)Nc2cc(C)ccn2)c(C)nc1C`, the IC50 in assay [3] is > 47.1 µM (inactive). Also, the EC50 in [4] was > 53 µM (inactive).
Taken in the same sequence, the figures for `SC1=NCN(CCc2ccccc2)CN1Cc1ccccc1` were > 47.1 µM (inactive) and > 53 µM (inactive).
Regarding `CN1CCC(O)(c2ccc(Cl)cc2)C(C(=O)c2ccc(Cl)cc2)C1` (stereo not drawn), the IC50 in “cells” was 38.5 µM (active).
`OC(c1ccccc1)(c1ccccc1)C1CCCN1` (stereo not drawn): the AC50 was 1.41 µM (inconclusive) at Cytochrome P450 2C19 and 25.1 µM (inconclusive) on Cytochrome P450 2D6.
Turning to `CC(C)(C)NC[C@H](O)c1ccccc1Cl`, the AC50 at Cytochrome P450 2D6 was 31.6 µM (inconclusive).
`OCCOCCN1CCN(C(S)=Nc2ccccc2)CC1`: the IC50 in assay [3] is > 47.1 µM (inactive). Besides, the EC50 in assay [4] was > 53 µM (inactive).
For `Cc1cc(C)n2nc(CC(=O)NNC(=O)c3ccccc3Cl)nc2n1`, in that order: > 47.1 µM (inactive) and > 53 µM (inactive).
As to `CC(=O)C1=C(O)C(=O)N(Cc2ccccc2)C1c1ccc(F)cc1` (stereo not drawn), the IC50 in assay [3] is > 47.1 µM (inactive). In addition, the EC50 in assay [4] was > 53 µM (inactive).
For `COc1cc(/C=N/NC(=O)c2ccccn2)ccc1OC(=O)c1cccs1`, the IC50 in “cells” is 10.5 µM (active).
Same read-out and setting: with `COc1ccc(/C=N/NC(=O)c2ccncc2)cc1CN1CCOCC1` the figure was 0.64 µM (active).
Turning to `O=C(N/N=C/c1cccc(OCc2ccccc2)c1)c1cccs1`, the AC50 on Cytochrome P450 2D6 is 25.1 µM (inconclusive); on Cytochrome P450 3A4 it was 20 µM (inconclusive).
On to `CCc1sc(N2[C@@H](C#N)[C@@H](c3ccccc3-c3ccccc3)[C@@H]2CO)nc1C`, for which the AC50 in [8] was 8.33 µM (active).
On the same count and under the same terms, with `CC(C)(C)[S@@+]([O-])N1Cc2cc(C(=O)NCCN3CCCC3)nc(-c3cccc(-c4ccc(C#N)cc4)c3)c2[C@H]1CCO` the figure was 4.66 µM (active).
Same read-out and setting: with `COc1ccc2c3c([nH]c2c1)[C@@H](CO)N(C(=O)c1cccc(F)c1)CC31CCN(C(=O)c2ccccc2)CC1` the figure was 5.71 µM (active); with `COc1ccccc1NC(=O)N1CCCCN2[C@@H](CO)[C@H](c3ccc(C#CC4CC4)cc3)[C@@H]2C1`, 5.48 µM (active); with `C[C@@H]1CN([C@H](C)CO)C(=O)c2cc(C#Cc3ccccc3F)cnc2O[C@H]1CN(C)C(=O)c1ccc2c(c1)OCO2`, 3.31 µM (active).
